Consider two molecules from paper PMC8317467 (FASEB journal : official publication of the Federation of …, 2020).

Series [1] addresses T1, F439W-ABCG2 (Homo sapiens, UniProt Q9UNQ0, F439W).
T1 sequence (Q9UNQ0 1-655 F439W): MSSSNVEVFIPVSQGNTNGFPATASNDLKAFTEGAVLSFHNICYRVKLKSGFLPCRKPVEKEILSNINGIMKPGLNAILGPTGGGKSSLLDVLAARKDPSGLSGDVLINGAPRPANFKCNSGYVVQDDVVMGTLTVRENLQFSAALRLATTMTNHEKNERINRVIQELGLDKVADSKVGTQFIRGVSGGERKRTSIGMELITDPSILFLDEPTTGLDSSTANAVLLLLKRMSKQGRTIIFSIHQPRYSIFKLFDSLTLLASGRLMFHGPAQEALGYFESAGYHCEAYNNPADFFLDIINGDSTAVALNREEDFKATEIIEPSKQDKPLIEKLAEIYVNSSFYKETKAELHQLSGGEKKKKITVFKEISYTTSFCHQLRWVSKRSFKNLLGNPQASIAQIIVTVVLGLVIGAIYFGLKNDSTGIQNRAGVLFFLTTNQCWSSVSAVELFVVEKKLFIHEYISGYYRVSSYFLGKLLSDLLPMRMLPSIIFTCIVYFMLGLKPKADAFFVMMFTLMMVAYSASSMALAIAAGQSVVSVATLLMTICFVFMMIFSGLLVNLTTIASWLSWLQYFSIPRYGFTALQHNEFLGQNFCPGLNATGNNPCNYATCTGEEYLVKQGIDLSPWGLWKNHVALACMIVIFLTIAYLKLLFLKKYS
In words: Transport assay. Conditions: 0.5 μM of Hoechst 33342, ± 10 μM of Lapatinib, 120 min. The class given is cell-based.

The target in a further series is T2, WT-ABCG2 (Homo sapiens, UniProt Q9UNQ0).
T2 sequence (Q9UNQ0 1-655): T1 sequence (Q9UNQ0 1-655 F439W) with W439F
In words: Membrane thermal shift, MEF membrane vesicles, WT-ABCG2. Conditions: 10 μM of ligand, 60 min at 37°C, heated 3 min at 65°C. The class given is binding.

For series [2], the target named is T3, F439Y-ABCG2 (Homo sapiens, UniProt Q9UNQ0, F439Y).
T3 sequence (Q9UNQ0 1-655 F439Y): T1 sequence (Q9UNQ0 1-655 F439W) with W439Y
In words: Transport assay. The class given is cell-based. Particulars: 0.5 μM of Hoechst 33342, ± 10 μM of Lapatinib, 120 min.

Series [3] concerns the target T1, F439W-ABCG2. In words: Membrane thermal shift, MEF membrane vesicles, F439W. It is filed as binding. Particulars: 10 μM of Hoechst 33342, 60 min at 37°C.
In series [4] the target is T3, F439Y-ABCG2. In words: Membrane thermal shift, MEF membrane vesicles, F439Y. The class given is binding. Conditions: 10 μM of Hoechst 33342, 60 min at 37°C.
The next series concerns the target T4, F439A-ABCG2 (Homo sapiens, UniProt Q9UNQ0, F439A).
T4 sequence (Q9UNQ0 1-655 F439A): T1 sequence (Q9UNQ0 1-655 F439W) with W439A
In words: Transport assay. It is filed as cell-based. Particulars: 0.5 μM substrate.

The next series deals with F439A. Conditions: ref 11 (Manolaridis et al); cited from earlier work.
The subject of a further series is N436A. Conditions: ref 11 (Manolaridis et al); cited from earlier work.

Changes are numbered by the printed parent chain. Entries after “also recorded” stand apart in the source; their conditions may differ.

Consider `CCOc1ccc(-c2nc3ccc(-c4nc5ccc(N6CCN(C)CC6)cc5[nH]4)cc3[nH]2)cc1` [Hoechst 33342], for which, on F439W-ABCG2 [1], the “transport of substrate by F439W-ABCG2” value is “transport activity similar to WT-ABCG2”. Also, on WT-ABCG2, the “thermal stabilization of WT-ABCG2 by ligand” value is given as “stabilized”. At F439Y-ABCG2 [2], the “transport of substrate by F439Y-ABCG2” value was “transport activity similar to WT-ABCG2”. Further, the “thermal stabilization of F439W-ABCG2 by ligand” value at F439W-ABCG2 [3] is “stabilized”. The “thermal stabilization of F439Y-ABCG2 by ligand” value at F439Y-ABCG2 [4] is on record as “stabilized”. Further, the “transport of substrate by F439A-ABCG2” value on F439A-ABCG2 is given as “incapable of transporting; also recorded: no net ABCG2 mediated transport”.

Regarding `C[C@]12CC[C@@H]3c4ccc(OS(=O)(=O)O)cc4CC[C@H]3[C@@H]1CCC2=O` [estrone-3-sulfate], in the series with F439A, the “transport of substrate by F439A” value was “could not transport”. Moreover, the “transport of substrate by N436A” value with N436A is “incapable”.
